Legend:
[1] = RP-HPLC retention time (used as an indication of hydrophobicity); type: physicochemical; conditions: C18 column, 0.1% TFA:H2O (A), 60% acetonitrile/0.1% TFA:H2O (B), 5-95% B in 30 min, 1.0 mL/min; radioactivity detector (slight delay versus UV signal)
Protocol: RP-HPLC analyzes were performed on a Proeminence LC-20A system (Shimadzu; Kyoto, Japan). The column selected was Vydac C18 150 × 4.6 mm, with a particle size of 5 μm, a pore size of 300 Å. Chromatograms were performed at λ = 220 nm. Peaks were eluted using solvent systems composed of 0.1% TFA:H2O as solvent A and 60% acetonitrile/0.1% TFA:H2O as solvent B, on a gradient of 5–95% of solvent B at a flow rate of 1.0 mL·min^−1 for 30 min (n = 3).
RP-HPLC analyzes were performed on a 1290 Infinity II UHPLC system (Agilent Technologies; Saint Clair, CA, USA) fitted with a radioactivity detector (Eckert & Ziegler; Berlin, Germany) and Open Lab ECM data system (Agilent Technologies; Saint Clair, CA, USA) to confirm the yield and purity of both radiolabeled peptides. Analyzes were performed using a Phenomenex C18 column (150 × […]; 5 µm particle size; 300 Å pore size), detection at λ = 220 nm, using 0.1% TFA:H2O as solvent A and 60% acetonitrile/0.1% TFA:H2O as solvent B. A gradient of 5% to 95% of solvent B in 30 min was used at a flow rate of 1.0 mL·min^−1.

C6 cells = test: In vitro specific binding to C6 cells (block with excess non-labeled peptide); type: cell-based, rat; conditions: 4 h
Protocol: The specific binding of the radiopeptides to C6 cells was evaluated in 12-well adherent plates, containing 2.0 × 10^5 cells per well. For the specific binding study (unblock), supplemented DMEM-F12 medium containing 1.66 nmol of the [^131I]I-GRGDYV or 8.88 nmol of the [^99mTc]Tc(CO) 3-GRGDHV was added in the wells. On the other hand, for the non-specific binding study (block), an excess of 1000× of the respective non-radiolabeled peptide (competitor) was added to the supplemented DMEM-F12 medium containing the radiopeptide in each well. In both cases, the plates were incubated at 37 °C in a humidified atmosphere containing 5% CO2 for 4 h and then, the supernatant was removed. Each well was washed with PBS, which was joined to the respective supernatant. Finally, the cells were removed by trypsinization and the contents were placed in microtubes. Each well was washed again with PBS, which was joined to the respective trypsinized cells. Cells and supernatants were counted in the above-mentioned automatic gamma counter.

C6 tumorigenic cells = test: Binding and internalization in C6 tumorigenic cells; type: cell-based, rat; conditions: 37 °C; for Bound fraction: 2 × 10^6 cells, 10 nmol radiopeptide
Protocol: The C6 cells were incubated at 37 °C in a humidified atmosphere containing 5% CO2 and maintained in culture using Dulbecco’s Modified Eagle Medium (DMEM)—F12 (Gibco; Gaithersburg, MD, USA) supplemented with 10% fetal bovine serum (Sigma-Aldrich; Darmstadt, Germany) and 1% glutamine (Sigma-Aldrich; Darmstadt, Germany). Cells were grown to 75% confluence and then harvested by trypsinization (0.04% trypsin/EDTA). After centrifugation (151× g for 5 min), the cells were resuspended in DMEM—F12 to a final concentration of […] for the development of the glioblastoma animal model.
An aliquot containing 2 × 10^6 C6 cells in supplemented DMEM-F12 culture medium (450 µL) was added to a vial and incubated with 10 nmol of the radiolabeled peptide at 37 °C with gentle agitation. The studies were evaluated at 1, 4 and 24 h (n = 7 for each time point). Then, the vials were centrifuged (604× g for 5 min). The radioactivities of the pellet and supernatant were separately evaluated using an automatic Wizard 3 2480 gamma counter (Perkin Elmer; Norwalk, CT, USA). The percentage of the bound fraction was calculated by Equation (1). (1) % bound fraction=Pellet radioactivity (cpm)/Pellet radioactivity (cpm)+supernatant radioactivity (cpm)×100
In the sequence, a second radioactivity determination was performed. For that, pellets were resuspended using 0.5 mL of acid buffer (0.2 M acetic acid in 0.5 M NaCl solution; pH 2.8) and maintained at room temperature for 5 min to remove the radiolabeled molecule attached to the cell membrane surface. Then, the vials were centrifuged (1677× g for 5 min). The pellet and supernatant were separated and their radioactivities were measured using the above-mentioned automatic gamma counter. The percentage of the internalized fraction of radiopeptides was estimated based on the ratio between the activity contained in the precipitate and the supernatant and calculated by Equation (2):(2) % internalized fraction=Pellet radioactivity (cpm)/Pellet radioactivity (cpm)+supernatant radioactivity (cpm)×100

In the case of [^99mTc]Tc(CO)3-GRGDHV, the “RP-HPLC retention time (Rt), radiolabeled peptide” value [1] is reported as 17.80 min, the “Binding to C6 cells (unblock)” value (C6 cells; 2.0 × 10^5 cells per well, 37 °C, 1.66 nmol [131I]I-GRGDYV or 8.88 nmol [99mTc]Tc(CO)3-GRGDHV, mean ± SD) is reported as 0.61 ± 0.07% and the “Binding to C6 cells with excess of non-radiolabeled peptide (block)” value (C6 cells; 1000× excess of the respective non-radiolabeled peptide, 37 °C, mean ± SD) is reported as 0.33 ± 0.04%. For the same substance, the “Reduction of binding by excess of non-radiolabeled peptide” value (C6 cells; block versus unblock, C6 cells) was ~ 46%, the Bound fraction (C6 tumorigenic cells; 1 h, n = 7) was ~ 22% and the Bound fraction (C6 tumorigenic cells; 4 h, mean ± SD, n = 7) was 23.47% ± 1.78. For the same substance, the Bound fraction (C6 tumorigenic cells; 24 h, n = 7) was ~ 8%, the Internalized fraction (C6 tumorigenic cells; 1 h, acid buffer wash pH 2.8, n = 7) was ~ 34% and the Internalized fraction (C6 tumorigenic cells; 4 h, acid buffer wash pH 2.8, mean ± SD, n = 7) was 54.24% ± 3.99. The Internalized fraction (C6 tumorigenic cells; 24 h, acid buffer wash pH 2.8, n = 7) was ~ 74%.

Reference: article PMC8876959, “Comparative Evaluation of Radiochemical and Biological Properties of ^131I- and [^99mTc]Tc(CO)3-Labeled RGD Analogues Planned to Interact with the αvβ3 Integrin Expressed in Glioblastoma” (Pharmaceuticals, 2022)
